The values below come from patent US9328092B2, “Acrylamide compounds as histamine H3 receptor ligands” (Suven Life Sciences Limited, priority 2012, dated 2016).

A short description of series [1]: Rodent brain penetration study. In kind it is in vivo, Male Wistar rats. As to conditions: Wister rats/Male, 3 mg/kg, Per-oral. On the procedure:
Male Wistar rats (230-280 grams) were used as experimental animals. Three animals were housed in each cage. Animals were given water and food ad libitum throughout the experiment and maintained on a 12 hours light/dark cycle. Brain penetration was determined in discrete manner in rats. One day prior to dosing day, male wistar rats (225-250 grams) were acclimatized. After acclimatization, the rats were grouped according to the weight in each group, 3 animals were kept in individual cage and allowed free access to food and water. At each time point (05, 1, and 2 hrs) n=3 animals were used. The compounds of formula (I) were dissolved in water and administered orally at (free base) 3 mg/kg. Blood samples were removed via, cardiac puncture by using light ether anesthesia the animals were sacrificed to collect brain tissue. Brain samples were homogenized and stored frozen at −20° C. until analysis. The concentrations of the compounds of formula (I) in blood and brain were determined using LC-MS/MS method. The compounds of formula (I) were quantified in blood and brain homogenate by validated LC-MS/MS method using acetonitrile precipitation technique. The compounds of formula (I) were quantified in the calibration range of 1-1000 ng/mL in blood and brain homogenate. Study samples were analyzed using calibration samples in the batch and quality control samples spread across the batch. Extents of brain to blood ratios were calculated (Cbrain/Cblood).

Series [2] is described as follows: Rodent pharmacokinetic study. As to conditions: rat, whole blood, Wistar rats/Male; for AUC(0-t) / Cmax / Tmax / half-life: blood. In kind it is in vivo. On the procedure:
Male Wistar rats (230-280 grams) were used as experimental animals. Three to five animals were housed in each cage. One day prior to dosing day, male wistar rats (225-250 grams) were anesthetized with isoflurane for surgical placement of jugular vein catheter. Animals were kept fasted over night and maintained on a 12 hours light/dark cycle. Three rats were dosed with compounds of formula (I) orally (3 mg/Kg) and intravenously (1 mg/kg) in two separate set of animals (n=3 rats/group). At each time point, blood was collected by jugular vein. Blood was stored frozen at […] until analysis. The concentrations of the compounds of formula (I) in blood were determined using LC-MS/MS method. Schedule time points: Pre dose 0.08 (only for i.v.) 0.25, 0.5, 1, 2, 4, 6, 8, and 24 hours after dosing (n=3). The compounds of formula (I) were quantified in blood by validated LC-MS/MS method using acetonitrile precipitation technique. The compounds of formula (I) were quantified in the calibration range of 1-1000 ng/mL in blood. Study samples were analyzed using calibration samples in the batch and quality control samples spread across the batch. Pharmacokinetic parameters Cmax, Tmax, AUCt, T1/2 and Bioavailability were calculated by non-compartmental model using software Pheonix WinNonlin version 6.0.1.

Series [3] concerns the target Human or Rat Histamine H3 Receptor (UniProt Q9Y5N1). The experiment in a line: Binding assay for human or rat histamine H3 receptor ([3H] R-α-methylhistamine displacement). As to conditions: [3H] R-α-methylhistamine 3.0 nM; rat brain frontal cortex or recombinant human receptor in CHO cells (source for table not stated); fumarate salt. On the procedure:
Binding and Functional Assays for Human or Rat Histamine H3 Receptor
Compounds can be evaluated according to the following procedures.
• Receptor source: Rat brain frontal cortex or recombinant human cDNA expressed in CHO cells • Radioligand: [^3H] R-α-methylhistamine • Final ligand concentration—[3.0 nM] • Non-specific determinant: R-α-methylhistamine (100 μM) • Reference compound: R-α-methylhistamine • Positive control: R-α-methylhistamine Incubation Conditions:
Increasing concentrations of test compounds or standard were incubated with membrane receptors and radioligand in 5 mM MgCl2 and 50 mM TRIS-HCl (pH 7.4) for 60 minutes at room temperature. The reaction was terminated by rapid vacuum filtration onto the glass fiber filters. Radioactivity trapped onto the filters was determined and compared to the control values in order to ascertain any interactions of the test compound(s) with either cloned human or rat receptor binding site.

A further series deals with Male Wister rats. The experiment in a line: Object recognition task model. The class given is in vivo. Conditions: 1 mg/kg, p.o. On the procedure:
The cognition enhancing properties of compounds of this invention were estimated using a model of animal cognition: the object recognition task model.
Male Wister rats (230-280 grams) were used as experimental animals. Four animals were housed in each cage. Animals were kept on 20% food deprivation before one day and given water ad libitum throughout the experiment and maintained on a 12 hours light/dark cycle. Also the rats were habituated to individual arenas for 1 hour in the absence of any objects.
One group of 12 rats received vehicle (1 mL/Kg) orally and another set of animals received compound of the formula (I) either orally or i.p., before one hour of the familiar (T1) and choice trial (T2).
The experiment was carried out in a 50×50×50 cm open field made up of acrylic. In the familiarization phase, (T1), the rats were placed individually in the open field for 3 minutes, in which two identical objects (plastic bottles, 12.5 cm height×5.5 cm diameter) covered in yellow masking tape alone (a1 and a2) were positioned in two adjacent corners, 10 cm. from the walls. After 24 hours of the (T1) trial for long-term memory test, the same rats were placed in the same arena as they were placed in T1 trial. Choice phase (T2) rats were allowed to explore the open field for 3 minutes in presence of one familiar object (a3) and one novel object (b) (Amber color glass bottle, 12 cm high and 5 cm in diameter). Familiar objects presented similar textures, colors and sizes. During the T1 and T2 trial, explorations of each object (defined as sniffing, licking, chewing or having moving vibrissae whilst directing the nose towards the object at a distance of less than 1 cm) were recorded separately by stopwatch. Sitting on an object was not regarded as exploratory activity, however, it was rarely observed.
T1 is the total time spent exploring the familiar objects (a1+a2).
T2 is the total time spent exploring the familiar object and novel object (a3+b).
The object recognition test was performed as described by Ennaceur, A., Delacour, J., 1988, A new one-trial test for neurobiological studies of memory in rats—Behavioural data, Behav. Brain Res., 31, 47-59.

One may read the AUC(0-t) as exposure summed from dosing to a finite time, without extrapolation to infinity. Read a low AUC(0-t) as less exposure. One may read the Cmax as the highest concentration seen after dosing. As a reminder, the Tmax is the time from dosing to the highest level. A word on the half-life: it is the time in which the quantity being followed falls by half. A low value points to fast loss. As usually defined, the bioavailability is the share of a dose that reaches the circulation, judged against a reference dose that is usually intravenous. Lower therefore signals little systemic uptake. What is called Ki is a dissociation constant, usually derived from enzyme kinetics or from competition with a known ligand. Consider `O=C(C=Cc1ccc(OC2CCN(C3CCC3)CC2)cc1)N1CCOCC1.O=C(O)/C=C/C(=O)O` [Example 1, 3-[4-(1-Cyclobutylpiperidin-4-yloxy)phenyl]-1-(morpholin-4-yl)prop-2-ene-1-one fumarate salt], for which the “Brain Penetration @ 1 h post dose (Cbrain/Cblood)” value in series [1] came out at 1.40. For the same molecule, in series [2] (1 mg/kg, Intravenous), the AUC(0-t) was 208 ± 7 ng·h/mL, the highest level (Cmax) was 214 ± 25 ng/mL, the Tmax worked out at 4.8 min and the half-life is 63 ± 4.2 min. In series [2] (3 mg/kg Per-Oral vs 1 mg/kg Intravenous), this molecule registered a bioavailability of 29 ± 2%. In series [2] (3 mg/kg, Per-Oral), the AUC(0-t) came to 176 ± 10 ng·h/mL, the peak level (Cmax) was 106 ± 5 ng/mL, the Tmax amounted to 30 min and the half-life was 93.6 ± 25.8 min. Moreover, in series [3], the Ki is 1.32 nM. For the same molecule, the Inference result in the series on Male Wister rats is given as “Active”. In the series with Male Wister rats (choice trial T2), the “Exploration time mean ± S.E.M, Familiar object” value amounted to 5.96 ± 1.03 s and the “Exploration time mean ± S.E.M, Novel object” value came out at 14.86 ± 1.92 s.
